What was measured:
[1] = test system: HeLa cells with doxycycline-inducible PKCε; test: Invasion of HeLa cells through a reconstituted basement membrane matrix; format: cell-based; details: PKCε induced with doxycycline, Figure 6C
Method: Figure 6 Compound 8 inhibits MARCKS phosphorylation, cell proliferation, and invasion following treatment with 8. (A) HeLa cells were starved for 16 h in medium without fetal calf serum. Subsequently, they were treated with 50 μM solution of compound 8 for 30 min and 100 nM TPA for the last 10 min. An amount of 150 μg of protein from lysed cells was loaded onto SDS 8–16% gels. Tubulin was used as loading control. Below a representative blot, a bar graph corresponding to quantitative scans of three independent experiments (±SD) is shown. (B) Cell proliferation following treatment of HeLa and PC-3 cells with 8. The mean values (±SD) of three independent experiments, in which three samples were taken within each experiment, are shown. (C) Invasion of cells through a membrane. Cell invasion was determined as described in Experimental Section. In HeLa cells with a doxycycline-inducible PKCε the expression of PKCε was induced with doxycycline (control + Dox). The mean of three experiments (±SD) is shown: (∗) p = 0.03. The data are normalized to the control (100%). Therefore, the standard deviation for the control is 0.
For cell migration and motility, a scratch migration assay described by Cha et al.[41] was employed. […] Invasion of HeLa cells through a reconstituted basement membrane matrix was determined with a cell invasion assay kit from Chemicon (no. ECM550) as described by the manufacturer.

[2] = test system: PC-3 prostate adenocarcinoma cells; test: Cell proliferation (SRB assay), PC-3; format: cell-based, human; details: PC-3, 50 μM, 72 h
Method: HeLa cells containing a tetracycline/doxycycline-inducible constitutively active PKCε were described previously.[26] A PathDetect HeLa HLR cell line was obtained from Agilent, Technologies, Wokingham, U.K. PC-3 prostate adenocarcinoma cells were obtained from Dr. Helmut Klocker, Department of Urology, Innsbruck Medical University. For cell proliferation HeLa HLR and PC-3 cells were seeded at ∼10 000 cells per well in 96-well plates. After 4 h various concentrations of 8 were added and left for 72 h. Cell proliferation was determined by the SRB assay.[35]

[3] = target: T1, PKCβII/RACK1 interaction (Homo sapiens, UniProt P63244); test: PKCβII/RACK1 in vitro binding assay; details: Figure 2B
T1 construct: 6-His
Method: This assay was similar to the PKCε/RACK2 binding assay described above. 6-his-tagged RACK1 was cloned into a pET-30a(+) vector (Novagen, Merck KGaA, Darmstadt, Germany) and purified with Ni-NTA agarose (Qiagen, Hilden, Germany). Final elution was performed with 500 nM imidazole in elution buffer (20 mM Tris-HCl/300 mM NaCl, 20% glycerol, pH 7.5). The integrity of purified recombinant protein was analyzed by Coomassie Blue staining and Western blotting. Then 200 ng RACK1 was coated onto 96-well EIA/RIA high binding plates (Costar, Corning, New York, NY) at 4 °C on a shaker with gentle agitation overnight. Compound 8 was added at room temperature for 30 min. Then 500 ng of recombinant GST-tagged PKCβII (ProQinase) was activated with CaCl2, phosphatidylserine, and TPA for 10 min. The RACK1-coated plates with and without 8 were incubated for 1 h with activated PKCβII. The interaction was determined with a primary rabbit anti-GST antibody (Santa Cruz) and corresponding HRP-conjugated goat anti-rabbit HRP conjugated secondary antibody (Santa Cruz) as described above for the PKCε/RACK2 interaction.

[4] = test system: PKCδ; test: PKCδ translocation, cell fractionation and Western blotting in PC-3 cells; format: cell-based, human; details: TPA, Figure 3
Method: (§1) For PKCε translocation PC-3 cells were starved for 16 h, treated with 8 for 30 min, stimulated with 50 nM TPA for 5 min, lysed, and fractionated with a CNMCS/CNM compartmental protein extraction kit (BioChain Institute, Newark, CA). Western blotting was performed by a standard procedure as described by Garczarczyk et al.[27],[40] Cytosolic and membrane fractions were loaded onto SDS gels and transferred to an Immobilon membrane (Millipore, Billerica, MA). The membranes were incubated with rabbit polyclonal IgG antibodies for detection of PKCε (Santa Cruz Biotechnology; dilution 1:2000), for PKCε phosphoSer^729 (Millipore; dilution 1:1000), for PKCδ (Santa Cruz Biotechnology; dilution 1:1000), and for MARCKS phosphoSer152/156 (Cell Signaling Technology, Danvers, MA; dilution 1:1000). For the loading control tubulin (Santa Cruz Biotechnology; dilution 1:1000), and as marker for the membrane fraction, an IGFI-βR rabbit polyclonal IgG antibody (Santa Cruz; dilution 1:1000) and, as secondary antibodies, peroxidase-conjugated AffiniPure goat anti-rabbit IgG (Jackson ImmunoResearch Laboratories, West Grove, PA; dilution 1:20000) were used. GAPDH (Chemicon, Millipore, Billerica, MA; dilution 1:10000) was used as loading control for the cytosolic fraction. […]

[5] = target: PIM3 (Homo sapiens, UniProt Q86V86); test: Kinase profiling (Dundee), PIM3; format: biochemical; details: 25 μM solution
[6] = test system: 109 different protein kinases; test: Screen of 109 kinases (Dundee); format: biochemical; details: 25 μM solution; many kinases
[7] = target: RSK2 (Homo sapiens, UniProt P51812); test: Kinase profiling (Dundee), RSK2; format: biochemical; details: 25 μM solution
[8] = test system: HeLa cells containing a doxycycline-inducible constitutively active PKCε; test: Scratch migration assay; format: cell-based; details: 25 μM, 24 h, doxycycline 2 μg/mL
Method: For cell migration and motility, a scratch migration assay described by Cha et al.[41] was employed. In a tissue culture dish, with logarithmically growing HeLa cells containing a doxycycline-inducible constitutively active PKCε, a migration gap of approximately 1 mm was created by introducing a “scratch” to the adherent layer of cultured cells using a sterile Gilson 200 μL pipet tip. The scratch was administered by hand with sufficient pressure to remove adherent cells from the polystyrene substrate but without causing physical damage to the polystyrene surface. The dish was washed with PBS to remove the cells and further incubated with 2 μg/mL doxycycline and 25 μM 8 for 24 h. Controls were left either untreated or were incubated with 2 μg/mL doxycycline and DMSO. […] Invasion of HeLa cells through a reconstituted basement membrane matrix was determined with a cell invasion assay kit from Chemicon (no. ECM550) as described by the manufacturer.

[9] = test system: VEGF-induced angiogenesis in chicken egg; test: Chicken egg angiogenesis assay; format: in vivo; details: Figure 8
Method: Eggs from hen were incubated at 37 °C for 3 days, opened, and incubated for further 7 days. After further incubation for 5 days, angiogenesis was observed by microscope.

[10] = test system: PKCε; test: PKCε translocation, cell fractionation and Western blotting in PC-3 cells; format: cell-based, human; details: Figure 3
Method: as §1

[11] = target: BTK (Homo sapiens, UniProt Q06187); test: Kinase profiling (Dundee), BTK; format: biochemical; details: 25 μM solution
[12] = target: ERK1 (Homo sapiens, UniProt P27361); test: Kinase profiling (Dundee), ERK1; format: biochemical; details: 25 μM solution
Sequence of ERK1 (P27361 whole entry, species assumed): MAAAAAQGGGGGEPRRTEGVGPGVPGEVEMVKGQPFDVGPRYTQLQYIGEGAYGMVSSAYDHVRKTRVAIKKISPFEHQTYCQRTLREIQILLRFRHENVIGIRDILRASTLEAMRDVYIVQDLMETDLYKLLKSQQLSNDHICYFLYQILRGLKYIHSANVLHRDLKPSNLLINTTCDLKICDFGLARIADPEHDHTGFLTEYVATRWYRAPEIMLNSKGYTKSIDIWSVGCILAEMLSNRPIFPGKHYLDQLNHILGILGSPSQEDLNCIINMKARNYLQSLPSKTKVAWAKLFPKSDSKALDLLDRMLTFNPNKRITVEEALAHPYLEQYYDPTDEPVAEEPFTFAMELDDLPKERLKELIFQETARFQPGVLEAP

Sequence of RSK2 (P51812 whole entry, species assumed): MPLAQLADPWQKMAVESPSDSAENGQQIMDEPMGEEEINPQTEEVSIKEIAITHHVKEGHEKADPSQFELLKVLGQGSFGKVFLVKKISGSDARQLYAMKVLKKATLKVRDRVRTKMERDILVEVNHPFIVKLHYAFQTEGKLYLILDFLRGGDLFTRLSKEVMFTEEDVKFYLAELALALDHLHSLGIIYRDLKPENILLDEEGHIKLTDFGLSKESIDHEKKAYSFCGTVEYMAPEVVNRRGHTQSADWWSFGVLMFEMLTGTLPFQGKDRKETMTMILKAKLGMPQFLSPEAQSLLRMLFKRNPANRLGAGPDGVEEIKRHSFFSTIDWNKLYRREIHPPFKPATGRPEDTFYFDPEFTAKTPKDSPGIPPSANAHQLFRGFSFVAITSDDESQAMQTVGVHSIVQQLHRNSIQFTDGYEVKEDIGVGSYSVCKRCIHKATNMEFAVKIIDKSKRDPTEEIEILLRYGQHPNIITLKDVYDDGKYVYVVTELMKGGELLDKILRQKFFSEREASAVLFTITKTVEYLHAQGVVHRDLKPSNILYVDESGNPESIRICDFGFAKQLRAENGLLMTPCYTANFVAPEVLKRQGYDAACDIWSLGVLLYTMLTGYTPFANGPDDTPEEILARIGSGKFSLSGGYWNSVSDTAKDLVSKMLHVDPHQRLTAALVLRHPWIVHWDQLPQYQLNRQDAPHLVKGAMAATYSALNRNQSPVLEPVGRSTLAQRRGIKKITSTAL
Sequence of BTK (Q06187 whole entry, species assumed): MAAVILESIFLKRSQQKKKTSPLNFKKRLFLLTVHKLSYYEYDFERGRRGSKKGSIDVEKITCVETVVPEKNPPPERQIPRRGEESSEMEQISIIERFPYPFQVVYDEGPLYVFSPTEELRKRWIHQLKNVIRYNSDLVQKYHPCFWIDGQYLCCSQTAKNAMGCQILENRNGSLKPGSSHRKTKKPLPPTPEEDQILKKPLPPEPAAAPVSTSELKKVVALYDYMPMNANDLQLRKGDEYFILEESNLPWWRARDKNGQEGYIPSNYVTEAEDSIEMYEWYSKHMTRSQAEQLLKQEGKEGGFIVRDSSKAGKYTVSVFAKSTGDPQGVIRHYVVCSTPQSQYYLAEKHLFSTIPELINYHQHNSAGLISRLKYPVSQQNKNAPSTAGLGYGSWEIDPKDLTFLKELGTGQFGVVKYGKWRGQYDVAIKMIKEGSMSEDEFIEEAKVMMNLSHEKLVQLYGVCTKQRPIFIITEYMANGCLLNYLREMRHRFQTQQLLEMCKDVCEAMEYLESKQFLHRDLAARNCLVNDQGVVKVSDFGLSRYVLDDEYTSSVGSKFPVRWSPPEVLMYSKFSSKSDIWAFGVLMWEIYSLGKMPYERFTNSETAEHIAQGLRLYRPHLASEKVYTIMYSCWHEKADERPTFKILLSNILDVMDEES

In the case of CC(=O)c1cccc(NC(=O)c2sc3nc4cc5c(cc4cc3c2N)OCCO5)c1 [Compound 8, N-(3-acetylphenyl)-9-amino-2,3-dihydro-1,4-dioxino[2,3-g]thieno[2,3-b]quinoline-8-carboxamide], the “Invasion of cells through an extracellular matrix” value [1] is reported as “inhibited”, the “Inhibition of cell proliferation” value [2] is reported as “did not show any inhibition” and the “Prevention of the PKCβII/RACK1 interaction” value [3] is reported as “does not prevent”. The “PKCδ in the membrane” value [4] was “did not decrease”, the “PIM3 activity, % of control” value [5] was 46 % of control and the “Effect on kinases in a screen of 109 kinases” value [6] was “not or only slightly affected”. For the same compound, the “RSK2 activity, % of control” value [7] was 27 % of control, the “PKCε-induced migration of cells into a gap” value [8] was “inhibited” and the “Induction of angiogenesis by vascular endothelial growth factor” value [9] was “inhibited”. The “Ser729-phosphorylated PKCε at the membrane” value ([10]; TPA) was “did not reduce”, the “Translocation of activated and phosphorylated PKCε to the membrane fraction” value ([10]; TPA-induced) was “partially inhibits” and the “BTK activity, % of control” value [11] was 42 % of control. The “ERK1 activity, % of control” value [12] was 55 % of control.

From PMC4001449, “Thienoquinolines as Novel Disruptors of the PKCε/RACK2 Protein–Protein Interaction” (Journal of Medicinal Chemistry, 2014)
